Assay [1] has as its target Recombinant human IDO1 (Homo sapiens, UniProt P14902). Put plainly: IDO1 Enzymatic Assay. To be noted: recombinant human IDO1 40 nM, L-tryptophan 100 μM, 40 min room temperature, N′-formylkynurenine absorbance 321 nm; read-out: IDO1 biochemical activity*. As for the experimental part:
The IDO1 biochemical inhibitory activity is determined by measuring the decrease in N′-formylkynurenine from tryptophan catalyzed by IDO1 enzyme. Recombinant human IDO1 (40 nM), L-tryptophan (100 μM), L-ascorbic acid (20 mM), methylene Blue (20 μM), catalase (0.2 mg/mL), and serial dilutions of the test compounds in a total volume of […] containing DMSO (with final DMSO concentration of 0.5%) and a pH 7.5 buffer containing potassium phosphate (50 mM) were added into each well in a 96-well plate. After incubation at room temperature for 40 min, the absorbance of the reaction mixture was read at 321 nm to measure the formation of N′-formylkynurenine by SpectraMax microplate reader. Percent inhibition of the test compounds was determined by measuring the decrease in N′-formylkynurenine as compared to the control of DMSO vehicle, which was calculated by formula of (WC−WT)/WC, where WC is the mean absorbance of the control well minus blank well; WT is the mean absorbance of the test well minus the blank well. Data was analyzed by GraphPad Prism 5 and the IC50 values were obtained by non-linear regression.
The IC50 values of IDO1 biochemical activity for the examples disclosed herein are listed in Table 2, A: ≤0.1 μM; B: >0.10 μM and ≤0.5 μM; C: >0.5 μM and ≤1.0 μM; and D: >1.0 μM.

The target of assay [2] is T1, TDO2 in A172 cancer cells (Homo sapiens, UniProt P48775).
T1 construct: endogenous in cells; host or cells: A172 cancer cells
T1 sequence (P48775 whole entry): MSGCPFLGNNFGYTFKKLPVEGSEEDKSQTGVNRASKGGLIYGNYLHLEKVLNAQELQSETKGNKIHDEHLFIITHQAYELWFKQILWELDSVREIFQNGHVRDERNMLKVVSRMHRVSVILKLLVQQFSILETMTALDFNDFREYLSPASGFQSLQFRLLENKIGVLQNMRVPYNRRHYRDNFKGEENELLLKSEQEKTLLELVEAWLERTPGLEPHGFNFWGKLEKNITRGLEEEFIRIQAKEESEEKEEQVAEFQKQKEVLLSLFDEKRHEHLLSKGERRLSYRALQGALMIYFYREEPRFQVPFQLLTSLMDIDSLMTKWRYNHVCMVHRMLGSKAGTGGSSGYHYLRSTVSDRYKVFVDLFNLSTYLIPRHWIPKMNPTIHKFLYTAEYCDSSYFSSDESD
In words: TDO2 Cellular Assay (kynurenine production in A172 cancer cells). Type of assay: cell-based. To be noted: L-Trp 1 mM, 24 hours incubation, kynurenine at 490 nm. A digest of the protocol:
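Kynurenine output of A172 cells was read colorimetrically at 490 nm (Ehrlich reagent after TCA hydrolysis at 50 °C). Cells had 1 mM L-Trp plus compound at 0–25 μM in 0.25% DMSO for 24 h; IC50 values were fitted non-linearly from percent inhibition relative to vehicle.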

For assay [3], the target named is T2, IDO1 in Hela cancer cells (Homo sapiens, UniProt P14902).
T2 construct: endogenous in cells; host or cells: Hela cancer cells stimulated with human IFN-γ
T2 sequence (P14902 whole entry): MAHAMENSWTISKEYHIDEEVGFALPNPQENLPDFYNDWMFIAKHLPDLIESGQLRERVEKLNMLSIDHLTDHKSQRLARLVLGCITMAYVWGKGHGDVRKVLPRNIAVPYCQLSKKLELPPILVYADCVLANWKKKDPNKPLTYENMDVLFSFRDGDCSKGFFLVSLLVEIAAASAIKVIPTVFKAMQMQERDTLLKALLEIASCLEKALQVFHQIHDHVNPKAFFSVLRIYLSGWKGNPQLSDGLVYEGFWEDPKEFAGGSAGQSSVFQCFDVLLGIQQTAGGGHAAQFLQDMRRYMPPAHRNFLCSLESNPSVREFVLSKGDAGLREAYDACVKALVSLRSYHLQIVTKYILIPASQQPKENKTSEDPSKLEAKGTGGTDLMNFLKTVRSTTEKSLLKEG
Put plainly: IDO1 Cellular Assay (kynurenine production in IFN-γ stimulated Hela cancer cells). To be noted: human IFN-γ 50 ng/mL, 48 hours incubation, kynurenine at 490 nm. It is filed as cell-based. The essentials:
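HeLa cells stimulated with 50 ng/mL IFN-γ (final) and treated 48 h with compound (0–25 μM final, 0.25% DMSO). Supernatant kynurenine measured after TCA hydrolysis and p-dimethylaminobenzaldehyde reaction at 490 nm; inhibition vs DMSO control, IC50 by non-linear regression.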

Each structure is given as a SMILES string.

Recombinant human IDO1, sequence (P14902 whole entry): as above

Consider `CS(=O)(=O)N[C@@H]1[C@@H]2CN(c3cc(Cl)cc4[nH]ncc34)C[C@@H]21` [Example 24, N-((1R,5S,6r)-3-(6-chloro-1H-indazol-4-yl)-3-azabicyclo[3.1.0]hexan-6-yl)methanesulfonamide], for which the IC50 in assay [1] is over 1000 nM; in assay [2], 1000 to 5000 nM.
Regarding `CC(=O)NC1[C@H]2CN(c3cc(Cl)cc4[nH]ncc34)C[C@@H]12` (stereo partly drawn) [Example 17, N-((1R,5S)-3-(6-chloro-1H-indazol-4-yl)-3-azabicyclo[3.1.0]hexan-6-yl)acetamide], the IC50 was over 1000 nM in assay [1] and 1000 to 5000 nM in assay [2].
Turning to `CC(=O)N1CCC2CN(c3cc(Cl)cc4[nH]ncc34)CC21` (centres unmarked) [Example 19, 1-(5-(6-chloro-1H-indazol-4-yl)hexahydropyrrolo[3,4-b]pyrrol-1(2H)-yl)ethanone], the IC50 in assay [1] is over 1000 nM; in assay [2], 500 to 1000 nM.
With `CS(=O)(=O)N1CCCC2CN(c3cc(Cl)cc4[nH]ncc34)CC21` (centres unmarked) [Example 13, 6-chloro-4-(1-(methylsulfonyl)hexahydro-1H-pyrrolo[3,4-b]pyridin-6(2H)-yl)-1H-indazole], the IC50 in assay [1] was over 1000 nM; in assay [2], 500 to 1000 nM.
For `CC1(C)C2CN(c3cc(Cl)cc4[nH]ncc34)CC2CN1S(=O)(=O)C1CC1` (centres unmarked) [Example 28, 6-chloro-4-(5-(cyclopropylsulfonyl)-4,4-dimethylhexahydropyrrolo[3,4-c]pyrrol-2(1H)-yl)-1H-indazole], in that order: over 1000 nM and at most 500 nM.
For `CC(=O)N[C@@H]1[C@@H]2CN(c3cc(Cl)cc4[nH]ncc34)C[C@@H]21` [Example 21, N-((1R,5S,6r)-3-(6-chloro-1H-indazol-4-yl)-3-azabicyclo[3.1.0]hexan-6-yl)acetamide], the IC50 in assay [1] was over 1000 nM; in assay [2] it was 1000 to 5000 nM.
With `CC(=O)N1CCCC2CN(c3cc(Cl)cc4[nH]ncc34)CC21` (centres unmarked) [Example 15, 1-(6-(6-chloro-1H-indazol-4-yl)octahydro-1H-pyrrolo[3,4-b]pyridin-1-yl)ethanone], the values for the IC50 in assay [1] and in assay [2] were over 1000 nM and at most 500 nM, respectively.
On to `CS(=O)(=O)N1CCC2CN(c3cc(Cl)cc4[nH]ncc34)CC21` (centres unmarked) [Example 23, 6-chloro-4-(1-(methylsulfonyl)hexahydropyrrolo[3,4-b]pyrrol-5(1H)-yl)-1H-indazole], for which the IC50 in assay [1] is over 1000 nM; in assay [2] it was 500 to 1000 nM.
Regarding `CC(=O)N1C[C@@H]2CN(c3cc(Cl)cc4[nH]ncc34)C[C@@H]2C1` [Example 14, 1-((3aR,6aS)-5-(6-chloro-1H-indazol-4-yl)hexahydropyrrolo[3,4-c]pyrrol-2(1H)-yl)ethanone], the IC50 in assay [1] is over 1000 nM; in assay [2], 500 to 1000 nM.
For `CS(=O)(=O)N1C[C@H]2CN(c3cc(Cl)cc4[nH]ncc34)C[C@H]2C1` [Example 12, 6-chloro-4-((3aR,6aS)-5-(methylsulfonyl)hexahydropyrrolo[3,4-c]pyrrol-2(1H)-yl)-1H-indazole], in that order: over 1000 nM and at most 500 nM.
In the case of `CC1(C)C2CN(c3cc(Cl)cc4[nH]ncc34)CC2CN1C(=O)c1ccc(C#N)cc1` (centres unmarked) [Example 27, 4-(5-(6-chloro-1H-indazol-4-yl)-1,1-dimethyloctahydropyrrolo[3,4-c]pyrrole-2-carbonyl)benzonitrile], the IC50 was over 1000 nM in assay [1] and 500 to 1000 nM in assay [2].
For the compound `CCNC(=O)N[C@H]1[C@@H]2C[C@@](O)(c3cc(Cl)cc4[nH]ncc34)C[C@@H]21` [Example 125, 1-((1R,3r,5S,6r)-3-(6-chloro-1H-indazol-4-yl)-3-hydroxybicyclo[3.1.0]hexan-6-yl)-3-ethylurea], the results for the IC50 in assay [2] and in assay [3] were at most 500 nM and over 5000 nM, respectively.
Taken in the same sequence, the figures for `O=C(N[C@H]1[C@@H]2C[C@@](O)(c3cc(Cl)cc4[nH]ncc34)C[C@@H]21)c1cccnc1` [Example 148, N-((1R,3r,5S,6r)-3-(6-chloro-1H-indazol-4-yl)-3-hydroxybicyclo[3.1.0]hexan-6-yl)nicotinamide] were at most 500 nM and at most 500 nM.
`CS(=O)(=O)NC1[C@H]2CN(c3cc(Cl)cc4[nH]ncc34)C[C@@H]12` (stereo partly drawn) [Example 16, N-((1R,5S)-3-(6-chloro-1H-indazol-4-yl)-3-azabicyclo[3.1.0]hexan-6-yl)methanesulfonamide]: the IC50 in assay [1] is over 1000 nM; in assay [2], 1000 to 5000 nM.
Take `N#Cc1cccc(C(=O)N[C@H]2[C@@H]3C[C@@](O)(c4cc(Cl)cc5[nH]ncc45)C[C@@H]32)c1` [Example 144, N-((1R,3r,5S,6r)-3-(6-chloro-1H-indazol-4-yl)-3-hydroxybicyclo[3.1.0]hexan-6-yl)-3-cyanobenzamide]: the IC50 in assay [2] and in assay [3] was at most 500 nM throughout.
For `O=C(N[C@H]1[C@@H]2C[C@@](O)(c3cc(Cl)cc4[nH]ncc34)C[C@@H]21)c1ccccc1` [Example 93, N-((1R,3r,5S,6r)-3-(6-chloro-1H-indazol-4-yl)-3-hydroxybicyclo[3.1.0]hexan-6-yl)benzamide], the values for the IC50 in assay [2] and in assay [3] were at most 500 nM and 500 to 1000 nM, respectively.
Consider `O[C@@]1(c2cc(Cl)cc3cn[nH]c23)C[C@H]2C[C@H]2C1` [Example 118, (1R,3r,5S)-3-(5-chloro-1H-indazol-7-yl)bicyclo[3.1.0]hexan-3-ol], for which the IC50 in assay [2] is 1000 to 5000 nM; in assay [3], over 5000 nM.
As to `O=C(C1CCOCC1)N1C[C@@H]2C[C@@](O)(c3cc(Cl)cc4cn[nH]c34)C[C@@H]2C1` [Example 97, ((3aR,5r,6aS)-5-(5-chloro-1H-indazol-7-yl)-5-hydroxyhexahydrocyclopenta[c]pyrrol-2(1H)-yl)(tetrahydro-2H-pyran-4-yl)methanone], the IC50 in assay [2] and in assay [3] was over 5000 nM each time.
Turning to `Cn1cc(C(=O)N[C@H]2[C@@H]3C[C@@](O)(c4cc(Cl)cc5[nH]ncc45)C[C@@H]32)cn1` [Example 155, N-((1R,3r,5S,6r)-3-(6-chloro-1H-indazol-4-yl)-3-hydroxybicyclo[3.1.0]hexan-6-yl)-1-methyl-1H-pyrazole-4-carboxamide], the IC50 was at most 500 nM in assay [2] and 1000 to 5000 nM in assay [3].
Taken in the same sequence, the figures for `N#Cc1cncc(C(=O)N[C@H]2[C@@H]3C[C@@](O)(c4cc(Cl)cc5[nH]ncc45)C[C@@H]32)c1` [Example 181, N-((1R,3r,5S,6r)-3-(6-chloro-1H-indazol-4-yl)-3-hydroxybicyclo[3.1.0]hexan-6-yl)-5-cyanonicotinamide] were at most 500 nM and at most 500 nM.
On to `O=C(N[C@H]1[C@@H]2C[C@@](O)(c3cc(C(F)(F)F)cc4[nH]ncc34)C[C@@H]21)c1cccc(Cl)c1` [Example 163, 3-chloro-N-((1R,3r,5S,6r)-3-hydroxy-3-(6-(trifluoromethyl)-1H-indazol-4-yl)bicyclo[3.1.0]hexan-6-yl)benzamide], for which the IC50 in assay [2] and in assay [3] was at most 500 nM each time.
With `O=C(c1ccccc1)N1C[C@@H]2C[C@@](O)(c3cc(Cl)cc4cn[nH]c34)C[C@@H]2C1` [Example 98, ((3aR,5r,6aS)-5-(5-chloro-1H-indazol-7-yl)-5-hydroxyhexahydrocyclopenta[c]pyrrol-2(1H)-yl)(phenyl)methanone], the IC50 in assay [2] and in assay [3] was over 5000 nM in each case.
For `O=C(N[C@H]1[C@@H]2C[C@@](O)(c3cc(Cl)cc4[nH]ncc34)C[C@@H]21)c1cnoc1` [Example 158, N-((1R,3r,5S,6r)-3-(6-chloro-1H-indazol-4-yl)-3-hydroxybicyclo[3.1.0]hexan-6-yl)isoxazole-4-carboxamide], the IC50 is 1000 to 5000 nM in assay [2] and over 5000 nM in assay [3].
For `Cn1ncc2c(N3CC4CCN(S(C)(=O)=O)C4C3)cc(Cl)cc21` (centres unmarked) [Example 20, 6-chloro-1-methyl-4-(1-(methylsulfonyl)hexahydropyrrolo[3,4-b]pyrrol-5(1H)-yl)-1H-indazole], the figures for the IC50 in assay [1] and in assay [2] were over 1000 nM and over 5000 nM, respectively.
For the compound `CS(=O)(=O)N1C[C@@H]2C[C@@](O)(c3c(Cl)ccc4cncn34)C[C@@H]2C1` [Example 53, (3aR,5r,6aS)-5-(6-chloroimidazo[1,5-a]pyridin-5-yl)-2-(methylsulfonyl)octahydrocyclopenta[c]pyrrol-5-ol], the IC50 is 1000 to 5000 nM in assay [2] and over 5000 nM in assay [3].

The record behind these values is patent publication US11548868B2, “Heterocyclic compounds, compositions comprising heterocyclic compound, and methods of use thereof” (JS INNOPHARM (SHANGHAI) LTD, priority 2017, dated 2023).
